The results in this text go back to PubChem BioAssay AID328 (DTP/NCI, 2004).

Values joined by “and” are separate entries in the source; they are usually repeats but may differ in a detail not shown here. Equal values may be shown once. Inconclusive results and toxic doses are left out.

The test system of the experiment is BDF1 mice, P388 leukemia ip, median survival T/C. Description: NCI In Vivo Anticancer Drug Screen. Data for tumor model P388 Leukemia (intraperitoneal) in B6D2F1 (BDF1) mice. Particulars: endpoint: median survival time, higher = longer survival. The method in brief: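 Steps: implant the tumour, treat one group with compound and another with vehicle, record survival, then divide treated by control.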

The mark [1] stands for this setting: dose: 12.5 mg/kg/injection, schedule: Q01DX009 (ip), vehicle: Klucel (hydroxypropylcellulose) (HPC).
The mark [2] stands for this setting: dose: 25.0 mg/kg/injection, schedule: Q01DX009 (ip), vehicle: Klucel (hydroxypropylcellulose) (HPC).
[3] abbreviates: dose: 1.0 mg/kg/injection, schedule: Q01DX009 (ip), vehicle: saline.

Turning to `CCOC(=O)C1C(=O)C(CN(CCCl)CCCl)C(=O)C(C(=O)OCC)C1c1ccc(O)cc1` (stereo unspecified), the T/C (dose: 0.75 mg/kg/injection, schedule: Q01DX009 (ip), vehicle: Klucel (hydroxypropylcellulose) (HPC)) was 180 % of control; the T/C (dose: 1.5 mg/kg/injection, schedule: Q01DX009 (ip), vehicle: Klucel (hydroxypropylcellulose) (HPC)) is 190 % of control; the T/C (dose: 3.0 mg/kg/injection, schedule: Q01DX009 (ip), vehicle: Klucel (hydroxypropylcellulose) (HPC)) was 183 % of control; the T/C (dose: 3.13 mg/kg/injection, schedule: Q04DX003 (ip), vehicle: saline with Tween-80) is 153 % of control; the T/C (dose: 6.0 mg/kg/injection, schedule: Q01DX009 (ip), vehicle: Klucel (hydroxypropylcellulose) (HPC)) was 266 % of control; the T/C (dose: 6.25 mg/kg/injection, schedule: Q01DX009 (ip), vehicle: Klucel (hydroxypropylcellulose) (HPC)) was 185 % of control. Further, the T/C by setting is: (dose: 6.25 mg/kg/injection, schedule: Q04DX003 (ip), vehicle: Klucel (hydroxypropylcellulose) (HPC)) 180 % of control; (dose: 6.25 mg/kg/injection, schedule: Q04DX003 (ip), vehicle: saline with Tween-80) 160 % of control; (dose: 11.0 mg/kg/injection, schedule: Q01DX009 (ip), vehicle: Klucel (hydroxypropylcellulose) (HPC)) 209 % of control; under setting [1], 269 % of control; (dose: 12.5 mg/kg/injection, schedule: Q04DX003 (ip), vehicle: Klucel (hydroxypropylcellulose) (HPC)) 195 % of control; (dose: 12.5 mg/kg/injection, schedule: Q04DX003 (ip), vehicle: saline with Tween-80) 225 % of control. Further, the T/C was 232 % of control (dose: 16.5 mg/kg/injection, schedule: Q01DX009 (ip), vehicle: Klucel (hydroxypropylcellulose) (HPC)); 105 % of control (dose: 20.0 mg/kg/injection, schedule: Q04DX003 (ip), vehicle: Klucel (hydroxypropylcellulose) (HPC)); 243 % of control and 95 % of control and 190 % of control under setting [2]; 182 % of control (dose: 25.0 mg/kg/injection, schedule: Q04DX003 (ip), vehicle: Klucel (hydroxypropylcellulose) (HPC)); 260 % of control and 267 % of control (dose: 25.0 mg/kg/injection, schedule: Q04DX003 (ip), vehicle: saline with Tween-80); 103 % of control (dose: 37.5 mg/kg/injection, schedule: Q01DX009 (ip), vehicle: Klucel (hydroxypropylcellulose) (HPC)). Besides, the T/C runs as follows: (dose: 50.0 mg/kg/injection, schedule: Q04DX003 (ip), vehicle: Klucel (hydroxypropylcellulose) (HPC)) 89 % of control; (dose: 80.0 mg/kg/injection, schedule: Q04DX003 (ip), vehicle: Klucel (hydroxypropylcellulose) (HPC)) 155 % of control; (dose: 118.0 mg/kg/injection, schedule: Q04DX003 (ip), vehicle: Klucel (hydroxypropylcellulose) (HPC)) 160 % of control; (dose: 177.0 mg/kg/injection, schedule: Q04DX003 (ip), vehicle: Klucel (hydroxypropylcellulose) (HPC)) 175 % of control; (dose: 200.0 mg/kg/injection, schedule: Q04DX003 (ip), vehicle: Klucel (hydroxypropylcellulose) (HPC)) 159 % of control; (dose: 266.0 mg/kg/injection, schedule: Q04DX003 (ip), vehicle: Klucel (hydroxypropylcellulose) (HPC)) 170 % of control. In addition, the T/C (dose: 400.0 mg/kg/injection, schedule: Q04DX003 (ip), vehicle: Klucel (hydroxypropylcellulose) (HPC)) was 180 % of control and 195 % of control.
As for `O=[N+]([O-])c1ccc2nnn(OC3CCCC3)c2c1`, the T/C was 98 % of control (dose: 100.0 mg/kg/injection, schedule: Q04DX003 (ip), vehicle: saline with Tween-80); 101 % of control (dose: 200.0 mg/kg/injection, schedule: Q04DX003 (ip), vehicle: saline with Tween-80); 88 % of control (dose: 400.0 mg/kg/injection, schedule: Q04DX003 (ip), vehicle: saline with Tween-80).
As to `CC1CCCCN1CCCO` (stereo unspecified), the T/C by setting is: (dose: 25.0 mg/kg/injection, schedule: Q01DX009 (ip), vehicle: saline) 104 % of control; (dose: 50.0 mg/kg/injection, schedule: Q01DX009 (ip), vehicle: saline) 108 % of control; (dose: 50.0 mg/kg/injection, schedule: Q04DX003 (ip), vehicle: saline) 92 % of control; (dose: 100.0 mg/kg/injection, schedule: Q01DX009 (ip), vehicle: saline) 112 % of control; (dose: 100.0 mg/kg/injection, schedule: Q04DX003 (ip), vehicle: saline) 96 % of control.
As to `O=[N+]([O-])c1ccc(Oc2ccc(C3N(c4ccccc4)CCN3c3ccccc3)cc2)c([N+](=O)[O-])c1`, the T/C reads like this: (dose: 12.5 mg/kg/injection, schedule: Q01DX009 (ip), vehicle: water) 99 % of control; (dose: 25.0 mg/kg/injection, schedule: Q01DX009 (ip), vehicle: water) 89 % of control; (dose: 50.0 mg/kg/injection, schedule: Q01DX009 (ip), vehicle: water) 99 % of control; (dose: 100.0 mg/kg/injection, schedule: Q01DX009 (ip), vehicle: water) 90 % of control; (dose: 200.0 mg/kg/injection, schedule: Q01DX009 (ip), vehicle: water) 91 % of control.
With `N=C(N)SCc1cccc([N+](=O)[O-])c1`, the T/C under setting [1] is 97 % of control; the T/C under setting [2] is 103 % of control; the T/C (dose: 50.0 mg/kg/injection, schedule: Q01DX009 (ip), vehicle: Klucel (hydroxypropylcellulose) (HPC)) was 110 % of control.
For `CCOC(=O)CN1CCC2CC1c1c([nH]c3ccccc13)C21OCCO1` (stereo unspecified), the T/C is 105 % of control (dose: 0.06 mg/kg/injection, schedule: Q01DX009 (ip), vehicle: saline); 95 % of control (dose: 0.12 mg/kg/injection, schedule: Q01DX009 (ip), vehicle: saline); 100 % of control (dose: 0.25 mg/kg/injection, schedule: Q01DX009 (ip), vehicle: saline); 105 % of control (dose: 0.5 mg/kg/injection, schedule: Q01DX009 (ip), vehicle: saline); 105 % of control under setting [3]; 100 % of control (dose: 2.0 mg/kg/injection, schedule: Q01DX009 (ip), vehicle: saline). In addition, the T/C by setting is: (dose: 8.0 mg/kg/injection, schedule: Q01DX009 (ip), vehicle: saline) 98 % of control; (dose: 16.0 mg/kg/injection, schedule: Q01DX009 (ip), vehicle: saline) 102 % of control; (dose: 32.0 mg/kg/injection, schedule: Q01DX009 (ip), vehicle: saline) 104 % of control.
On to `COc1ccc(Nc2ccnc3cc(Cl)ccc23)cc1CN(CCCl)CCCl`, for which the T/C runs as follows: (dose: 0.11 mg/kg/injection, schedule: Q01DX009 (ip), vehicle: saline) 100 % of control; (dose: 0.13 mg/kg/injection, schedule: Q01DX009 (ip), vehicle: saline) 89 % of control; (dose: 0.2 mg/kg/injection, schedule: Q01DX009 (ip), vehicle: saline) 180 % of control; (dose: 0.22 mg/kg/injection, schedule: Q01DX009 (ip), vehicle: saline) 117 % of control; (dose: 0.22 mg/kg/injection, schedule: Q04DX003 (ip), vehicle: saline) 113 % of control; (dose: 0.33 mg/kg/injection, schedule: Q04DX003 (ip), vehicle: saline) 104 % of control. The T/C by setting is: (dose: 0.44 mg/kg/injection, schedule: Q01DX009 (ip), vehicle: saline) 166 % of control; (dose: 0.5 mg/kg/injection, schedule: Q04DX003 (ip), vehicle: saline) 122 % of control; (dose: 0.66 mg/kg/injection, schedule: Q01DX009 (ip), vehicle: saline) 163 % of control; under setting [3], 163 % of control; (dose: 1.25 mg/kg/injection, schedule: Q01DX009 (ip), vehicle: Klucel (hydroxypropylcellulose) (HPC)) 155 % of control; (dose: 1.5 mg/kg/injection, schedule: Q01DX009 (ip), vehicle: saline) 176 % of control. Further, the T/C runs as follows: (dose: 2.5 mg/kg/injection, schedule: Q01DX009 (ip), vehicle: Klucel (hydroxypropylcellulose) (HPC)) 155 % of control; (dose: 3.13 mg/kg/injection, schedule: Q04DX003 (ip), vehicle: saline) 154 % of control; (dose: 4.0 mg/kg/injection, schedule: Q01DX009 (ip), vehicle: saline) 86 % of control; (dose: 25.0 mg/kg/injection, schedule: Q04DX003 (ip), vehicle: saline sonified) 88 % of control.
